{
  "source": "patent US7510825B2",
  "about": "“Kits and methods for detection of apoptotic cells” (NST NeuroSurvival Technologies Ltd, priority 2000, dated 2009)",
  "tested_on": "Jurkat cells (T-cell leukemia)",
  "assay": "Binding of DDC and PI to Jurkat cells treated with CD95, confocal microscopy",
  "format": "cell-based, human",
  "details": "CD95 for 180 minutes; confocal microscope",
  "protocol": "For microscopic analysis the concentration of cells should be within 1-2×10^7/ml. […] If fixation is needed, it should be performed after DDC staining. • 1. Adjusting the cells to 1-2×10^7/ml in buffer. • 2. Transferring 96 μl from the cell suspension to an eppendorf and staining the cells by adding 4 μl from the DDC solution. Incubating for 10-40 minutes at RT protected from light. • 3. A double labeling could be conducted with PI, if desired. In such a case, 1 μl is added from the PI solution. • 4, Placing the cell suspension on a glass slide. Covering the cells with a glass coverslip. Alternatively, for analyzing adherent cells, cells may grow directly on coverslip. Staining the cells by incubation with DDC (4 μl of DDC/96 μl buffer reaction) or 10-40 minutes and PI (1 μl). […] Observing the cells under fluorescent or confocal microscope equipped with the appropriate UV filter (excitation at 360-370 nm, band pass, and emission at 420 nm, barrier filter. Using a Triple filter (Hoechst/FITC/Texas Red) allows concomitant observation of both DDC and PI. Quantitative Assay for DDC Accumulation using Fluorescene Spectroscopy\nJurkat cells (T-cell leukemia) were treated with CD95 for 180 minutes and incubated with DDC followed by incubation with Propidium Iodide (PI) as detailed in DDC protocols IIIC. The cells were analyzed under fluorescent confocal microscope using a UV filter. […]",
  "data": [
    {"compound": "CC[N+](C)(CC)CCC[n+]1c(-c2ccccc2)c2cc(N)ccc2c2ccc(N)cc21.[I-].[I-]", "note": "[PI, Propidium Iodide, reference compound]", "values": [
      {"measurement": "cellular staining pattern in apoptotic cells", "value": "Nuclear staining by PI can be seen only in late apoptotic cells"}
    ]}
  ]
}
